The values below come from PMC6522510 (Nature Communications, 2019).

Where a name gives a salt, the structure may show the parent alone. Read-outs that look alike come from different tables or passages of the source.

Some test systems named below: MOLM-13; CMK; ML-2; CHRF288-11; M07e; MV4-11; CMS; U937.
Holding throughout (parameters): species or system AML cell lines (8); Primary HTS, single concentration about 10 uM, Cell Titer Glo viability; log10 luminescence, per cent inhibition relative to cycloheximide control
What all share (details): 72 h, relative to cycloheximide control, log10 luminescence, inhibitor

Regarding `CCn1c(-c2nonc2N)nc2c(C#CCN)ncc(OCCCN)c21` [SJ000573339-1, N3180-25-A1], the MOLM-13 %inh in the assay with MOLM-13 came out at 6.465%. Further, the CMK %inh in the assay on CMK turned out to be 3.187%. Besides, in the assay on ML-2, the ML-2 %inh is 0.8489%. In addition, in the assay on CHRF288-11, the CHRF288-11 %inh was found to be 1.457%. In the assay on M07e, the M07e %inh was -1.392%. For the same compound, in the assay on MV4-11, the MV4-11 %inh is listed as 3.433%. Further, the CMS %inh in the assay with CMS was 4.589%. The U937 %inh with U937 is listed as 1.188%.

Take `COCCOC(=O)C1=C(C)NC(C)=C(C(=O)OC(C)C)C1c1cccc([N+](=O)[O-])c1` (stereo not drawn) [SJ000285435-8, NIMODIPINE]: the MOLM-13 %inh with MOLM-13 (MOLM-13 %inh, 10 µM) worked out at 3.286%. In addition, the CMK %inh in the assay on CMK (CMK %inh, 10 µM) is listed as -2.491%. In the assay on ML-2 (ML-2 %inh, 10 µM), the ML-2 %inh was 3.664%. Also, the CHRF288-11 %inh in the assay on CHRF288-11 (CHRF288-11 %inh, 10 µM) amounted to 5.054%. Moreover, the M07e %inh with M07e (M07e %inh, 10 µM) is listed as -0.8371%. Besides, the MV4-11 %inh in the assay with MV4-11 (MV4-11 %inh, 10 µM) is given as 7.361%. For the same compound, the CMS %inh in the assay with CMS (CMS %inh, 10 µM) is recorded as -0.4109%. Also, the U937 %inh in the assay on U937 (U937 %inh, 10 µM) worked out at 6.247%.

Consider `COc1ccc(C2=C(c3cn(C)c4ccccc34)C(=O)NC2=O)cc1` [SJ000580976-1], for which the MOLM-13 %inh in the assay on MOLM-13 is 0.836%. In addition, in the assay with CMK, the CMK %inh came to 12.52%. In the assay with ML-2, the ML-2 %inh is -0.4189%. Further, the CHRF288-11 %inh in the assay on CHRF288-11 amounted to 0.9018%. Further, the M07e %inh in the assay on M07e came out at 2.491%. Besides, in the assay on MV4-11, the MV4-11 %inh worked out at 1.945%. The CMS %inh in the assay with CMS is recorded as -2.297%. Also, the U937 %inh with U937 came to 2.922%.

`CS(=O)(=O)CCNCc1coc(-c2ccc3ncnc(Nc4ccc(OCc5ccccc5)cc4)c3c2)c1` [SJ000573020-1, U12271/135/2]: the MOLM-13 %inh in the assay on MOLM-13 is on record as 31.36%. Besides, the CMK %inh in the assay on CMK is recorded as 4.823%. In the assay on ML-2, the ML-2 %inh was determined as 1.422%. Moreover, in the assay with CHRF288-11, the CHRF288-11 %inh is reported as -1.974%. For the same compound, the M07e %inh in the assay on M07e was -2.581%. Also, the MV4-11 %inh with MV4-11 amounted to 24.68%. In the assay on CMS, the CMS %inh is given as -1.503%. In the assay on U937, the U937 %inh came to 2.077%.

With `CO[C@H]1/C=C/O[C@@]2(C)Oc3c(C)c(O)c4c(O)c(c(/C=N/N5CCN(C)CC5)c(O)c4c3C2=O)NC(=O)/C(C)=C\C=C\[C@H](C)[C@H](O)[C@@H](C)[C@@H](O)[C@@H](C)[C@H](OC(C)=O)[C@@H]1C` [SJ000000850-7, RIFAMPIN | RIFAMPICIN], in the assay on MOLM-13 (MOLM-13 %inh, 10 µM), the MOLM-13 %inh was 4.02%. Moreover, the CMK %inh with CMK (CMK %inh, 10 µM) is recorded as 0.4994%. The ML-2 %inh with ML-2 (ML-2 %inh, 10 µM) was found to be 2.607%. In addition, in the assay on CHRF288-11 (CHRF288-11 %inh, 10 µM), the CHRF288-11 %inh is 22.26%. Moreover, the M07e %inh in the assay on M07e (M07e %inh, 10 µM) came to 2.856%. Further, the MV4-11 %inh with MV4-11 (MV4-11 %inh, 10 µM) is 6.955%. In addition, the CMS %inh with CMS (CMS %inh, 10 µM) is 16.96%. Further, the U937 %inh in the assay on U937 (U937 %inh, 10 µM) turned out to be 2.422%.

Take `CC(C)=CCC/C(C)=C/CC/C(C)=C/CO` [SJ000286702-2, FARNESOL]: the MOLM-13 %inh in the assay on MOLM-13 is given as -0.6204%. In addition, the CMK %inh in the assay with CMK is given as -1.858%. The ML-2 %inh in the assay on ML-2 stood at 1.139%. Also, the CHRF288-11 %inh in the assay with CHRF288-11 is given as -1.355%. The M07e %inh in the assay with M07e is on record as 1.694%. Further, the MV4-11 %inh with MV4-11 was -0.08153%. Also, in the assay on CMS, the CMS %inh was -1.627%. For the same compound, in the assay with U937, the U937 %inh was -0.4236%.

For the compound `COc1ccc(F)cc1C(=O)c1cnc(NC2CCN(S(C)(=O)=O)CC2)nc1N` [SJ000581021-1], in the assay with MOLM-13, the MOLM-13 %inh worked out at 27.57%. The CMK %inh in the assay with CMK is recorded as 28.45%. For the same compound, in the assay on ML-2, the ML-2 %inh was found to be 16.42%. For the same compound, in the assay with CHRF288-11, the CHRF288-11 %inh amounted to 14.05%. In the assay on M07e, the M07e %inh is 26.32%. The MV4-11 %inh with MV4-11 was 23.41%. For the same compound, the CMS %inh with CMS was determined as 25.29%. In addition, the U937 %inh in the assay with U937 turned out to be 26.91%.

Take `CCCCOCCOc1nc(-c2ccc(C(=O)O)c(F)c2)sc1C` [SJ000573474-2, AC 261066]: the MOLM-13 %inh with MOLM-13 turned out to be 4.751%. In addition, the CMK %inh in the assay on CMK came to 1.422%. Besides, the ML-2 %inh in the assay with ML-2 worked out at 0.9412%. For the same compound, the CHRF288-11 %inh with CHRF288-11 is on record as 2.475e-05%. For the same compound, in the assay with M07e, the M07e %inh came to 1.286%. The MV4-11 %inh in the assay on MV4-11 is reported as 12.22%. The CMS %inh in the assay on CMS worked out at 12.33%. In the assay on U937, the U937 %inh stood at 6.265%.

Take `Cn1cc(C2=C(c3cn(-c4ccccc4)c4ccccc34)C(=O)NC2=O)c2ccccc21` [SJ000580977-1]: the MOLM-13 %inh in the assay on MOLM-13 came to 2.403%. In addition, in the assay on CMK, the CMK %inh amounted to 6.892%. Besides, the ML-2 %inh in the assay with ML-2 is -1.344%. Also, in the assay on CHRF288-11, the CHRF288-11 %inh was 2.78%. Further, the M07e %inh with M07e is on record as -0.4981%. Further, in the assay on MV4-11, the MV4-11 %inh is listed as 3.843%. For the same compound, in the assay with CMS, the CMS %inh was determined as 0.9336%. Moreover, in the assay with U937, the U937 %inh was 0.1058%.

For `CCn1c(-c2nonc2N)nc2cnc(Oc3cccc(NC(=O)c4ccc(N(C)C)cc4)c3)cc21` [SJ000573244-1, DG202759-186A1], the MOLM-13 %inh in the assay with MOLM-13 was determined as 0.8338%. In the assay with CMK, the CMK %inh came to 54.89%. Also, the ML-2 %inh in the assay with ML-2 was 13.68%. In addition, the CHRF288-11 %inh in the assay with CHRF288-11 is 1.25%. For the same compound, the M07e %inh in the assay on M07e is recorded as -4.099%. For the same compound, the MV4-11 %inh with MV4-11 is recorded as 28.29%. Also, the CMS %inh in the assay with CMS turned out to be 1.931%. In the assay with U937, the U937 %inh turned out to be 5.13%.

As to `CCN(CC)CCOC(=O)c1ccc(N)cc1Cl` [SJ000565166-1, CHLOROPROCAINE HYDROCHLORIDE], the MOLM-13 %inh in the assay with MOLM-13 is listed as 5.209%. In addition, the CMK %inh in the assay on CMK is recorded as -4.183%. The ML-2 %inh in the assay with ML-2 is reported as 1.664%. Also, the CHRF288-11 %inh in the assay with CHRF288-11 stood at 2.414%. Besides, the M07e %inh with M07e is reported as -0.3142%. Also, the MV4-11 %inh with MV4-11 came out at 1.062%. The CMS %inh in the assay with CMS is recorded as -2.449%. Also, in the assay with U937, the U937 %inh is -1.434%.

As to `NC(=O)c1ccc2c(-c3ccnc(NCCCO)n3)c(-c3ccc(F)cc3)nn2c1` [SJ000573349-1, U15445/74/1], the MOLM-13 %inh in the assay on MOLM-13 is recorded as 4.269%. In addition, in the assay on CMK, the CMK %inh is on record as 3.481%. In addition, the ML-2 %inh in the assay with ML-2 stood at 0.07673%. Besides, the CHRF288-11 %inh in the assay with CHRF288-11 was found to be 6.72%. In the assay on M07e, the M07e %inh was 8.993%. The MV4-11 %inh in the assay on MV4-11 is given as 0.006279%. The CMS %inh in the assay on CMS is given as -1.938%. Further, the U937 %inh in the assay with U937 is 3.919%.

`COc1ccc2cc(CCC(C)=O)ccc2c1` [SJ000285475-3, NABUMETONE]: the MOLM-13 %inh in the assay with MOLM-13 (MOLM-13 %inh, 10 µM) was 0.1221%. Besides, the CMK %inh in the assay with CMK (CMK %inh, 10 µM) was found to be 0.8703%. In the assay with ML-2 (ML-2 %inh, 10 µM), the ML-2 %inh was 2.121%. In addition, the CHRF288-11 %inh in the assay with CHRF288-11 (CHRF288-11 %inh, 10 µM) was -3.141%. For the same compound, in the assay on M07e (M07e %inh, 10 µM), the M07e %inh is given as 3.981%. For the same compound, the MV4-11 %inh with MV4-11 (MV4-11 %inh, 10 µM) is reported as 0.7976%. The CMS %inh in the assay with CMS (CMS %inh, 10 µM) stood at 0.5932%. Besides, in the assay with U937 (U937 %inh, 10 µM), the U937 %inh is listed as -2.289%.

On to `c1ccc(-c2n[nH]cc2-c2ccnc(-c3ccc(OCCn4ccnc4)cc3)c2)nc1` [SJ000573223-1, FVLN/241/112/1], for which the MOLM-13 %inh in the assay with MOLM-13 worked out at 3.444%. Further, the CMK %inh in the assay with CMK is recorded as 2.62%. Besides, the ML-2 %inh in the assay with ML-2 is -0.7623%. For the same compound, the CHRF288-11 %inh in the assay with CHRF288-11 is 4.882%. Also, in the assay on M07e, the M07e %inh is -2.852%. The MV4-11 %inh with MV4-11 is given as 2.943%. In addition, the CMS %inh with CMS was -2.708%. Besides, the U937 %inh with U937 is recorded as -2.834%.

In the case of `Cc1ccccc1-n1ncc(C(=O)c2ccccc2)c1N` [SJ000581031-1], the MOLM-13 %inh with MOLM-13 turned out to be 0.4251%. In the assay with CMK, the CMK %inh is -0.4181%. In addition, the ML-2 %inh in the assay with ML-2 was found to be 1.074%. Further, the CHRF288-11 %inh in the assay with CHRF288-11 is listed as -2.402%. Moreover, the M07e %inh in the assay with M07e worked out at 0.1374%. Also, the MV4-11 %inh in the assay with MV4-11 is recorded as -0.9776%. Besides, the CMS %inh in the assay on CMS was -2.229%. In addition, the U937 %inh in the assay on U937 is recorded as 4.01%.
